This is an account of results in patent publication US5756538A, “Flavonoid and biflavonoid derivatives, their pharmaceutical compositions, their anxiolytic activity” (University of Strathclyde, priority 1993, dated 1998).

Read-outs that look alike come from different tables or passages of the source.

Data set [1] concerns mice. In words: Locomotor activity test (OPTO-VARIMEX). The method, then: Male CF1 mice from our breeding stock weighing 28-35 g were used. The animals were placed in groups of 10-12 with free access to water and food, and maintained on a 12 h/12 h day-night cycle.
Diazepam (DZ; Hoffman-La Roche) and the flavonoids were dissolved in DMSO 40%, NaOH 0.1N (7:3: v/v) at pH 8.2 Control animals were injected with the same vehicle (VEH). RO 15-1788 (Hoffmann-La Roche) was suspended in DMSO 10%, propyleneglycol 10% in distilled water.
(c) Locomotor Activity Test: we used an OPTO-VARIMEX apparatus consisting of a glass box (36×15×20 cm) and two lateral bars with 15 light beams (0.32 cm diameter, beam spacing 2.65 cm). The apparatus detects automatically all the mouse movements, and discriminates between total and ambulatory activity. The locomotor activity (number of movements across the beams) was counted during 5 min. An increase in the number of transitions through the beams reflects an augmented locomotor activity.
The general procedure for all the tests is as follows: mice were injected with vehicle or the drug solution 20 min before the beginning of the test and put into another home cage. Ro 15-1788, a specific BZD receptor antagonist was injected 10 min before the tested drug. All the injections were given intraperitoneally (i.p.). Control mice were tested in each session, in parallel with those animals receiving the test drug or diazepam. Testing was carried out `blind`. All data were submitted to analysis of variance (ANOVA). Post-hoc comparisons between individual treatments and controls were made using Dunnett's t-test.
FIGS. 15, 16, 17 and 18 show ambulatory locomoter activity counts during a 5 min. test session in an OPTO-Varimex apparatus, 20 min. after i.p. injection with a mixture of brominated flavones (0.6,1,3 mg/kg), FIG. 15; 2' chlorinated chrysin (1,3 mg/kg); FIG. 16; 2' fluorinated chrysin (3 mg/kg), FIG. 17; 6,8 dibromoflavone, FIG. 18. Data are expressed as medians (interquartile range) of (n) number of animals.

In the next data set the target is benzodiazepine receptor. Description: Competitive inhibition of 3H-flunitrazepam binding to benzodiazepine receptor (cerebral cortical membranes). Also on record: species or system bovine. On the procedure: (Competitive inhibition of H^3 -flunitrazepam to benzodiazepine receptor)
Binding of 3H-flunitrazepam (0.7 nM) to the benzodiazepine receptor was carried out in extensively washed cerebral cortical membranes.
H^3 -flunitrazepam has a Ki of […] to the benzodiazepine receptor.
IC50 values were obtained using flavonoids at different concentrations (10^-10 to 10^-3 M).
Structure - activity relationships of several flavonoids on
the ^3 H Flunitrazepam binding to bovine brain membranes.

Data set [2] relates to mice. Description: Horizontal wire test (muscle relaxation). The format is in vivo, mice (male CF1). The method, then: (d) Horizontal Wire Test: It consisted of an horizontally strung wire (1 mm diameter, 15 cm long), placed at 20 cm from the table. Mice were lifted by the tail, allowed to grasp the wire with their forepaws and released. […] After two trials, performed at 5 min. intervals, the test took place. A myorelaxant drug, like diazepam at high doses, will impair the ability of mice to grasp the wire. Generally, this state of muscle relaxation is commonly associated with sedation.
(§1) All the injections were given intraperitoneally (i.p.). […] Testing was carried out `blind`. All data were submitted to analysis of variance (ANOVA).
The test took place after two trials, executed after a 5 min interval.

Data set [3] relates to mice. Description: Elevated plus maze (anxiety). Format: in vivo, mice (male CF1). As to conditions: for Total arm entries / Percentage of entries in the open arms / Percentage of the time spent on the open arms: 20 min after injection; for Total arm entries: 5 min test, mean ± S.E.M. The method, then:
(a) Elevated Plus Maze: consisted of 4 perpendicularly disposed wood arms (20×5 cm; two had 35 cm high wood walls, and two were open) linked by a central 10×10 cm square. The maze was suspended 50 cm from the room floor. Animals were placed on the central part of the maze facing a closed arm. This test has been widely validated to measure anxiety in rodents. The number of entries into and the time spent in the open and closed arms were counted during 5 min. […] Total exploratory activity (number of entries in both arms) was also determined.
as §1

Data set [4] relates to mice. In words: PTZ induced seizures in mice (anticonvulsant activity). The format is in vivo. On the procedure:
(Induced seizures in mice)
Benzodiazepines in general show an anxiolytic effect, a sedative effect and an anticonvulsant effect. In order to assess the present compounds for anticonvulsant activity the following experiment was carried out.
The method of Medina et al Biochem.Pharm. 40 p2227-2231, (1990) was followed (with the exception that injections were carried out intraperitoneally) and the mice observed for seizures.
EFFECTS OF IP ADMINISTRATION OF APIGENIN ON PTZ
INDUCED SEIZURES IN MICE.
The convulsant doses of pentylenetetrazole are between 50-80 mg/kg in different experiments carried out in 6 independent days.

The test system of data set [5] is locus coeruleus noradrenaline. In words: Noradrenaline levels in locus coeruleus after immobilization stress. The format is in vivo, rats. As to conditions: 1 mg/kg i.p., 30 min before 90-min stress session. On the procedure: Rats were submitted to a 90-minute immobilization stress session in a plastic cylinder. The locus coeruleus was dissected out after killing by decapitation and noradrenaline assessed by HPLC with electrochemical detection. Doses were 1 mg/kg for each substance, injected i.p., 30 minutes before the stress session.

Data set [6] deals with mice. Description: Holeboard test (exploratory activity, sedation). The format is in vivo, mice (male CF1). On the procedure: (b) Holeboard Test: consisted of a wood box (60×60×30 cm) with four 2 cm diameter holes equidistant in the floor. The number of head-dips and the time spent head-dipping were counted during 5 min. An increase in the number and the time spent head-dipping implies a greater exploratory activity.
as §1

The mark [7] stands for this setting: bovine brain membranes, 0.7 nM 3H-flunitrazepam, read-out: 3H Flunitrazepam binding IC50.
Where [8] appears, read: 3H-flunitrazepam 0.7 nM, read-out: IC50 at the benzodiazepine receptor.

With 6,8 dibromoflavone, in the data set with mice [1] (i.p., dose not stated), the “Ambulatory locomotor activity counts vs controls” value was “No significant difference”.

For the compound `O=c1cc(-c2ccccc2Cl)oc2cc(O)cc(O)c12` [2' chlorochrysin, 5,7-Dihydroxy-2'-chloroflavone], the “Ambulatory locomotor activity counts vs controls” value in the data set with mice [1] (1, 3 mg/kg i.p., 20 min after injection, 5 min session) is “No significant difference”. In addition, the IC50 on benzodiazepine receptor (setting [7]) was determined as 9000 nM.

For the compound `O=c1cc(-c2ccccc2F)oc2cc(O)cc(O)c12` [2' fluorochrysin, 5,7-Dihydroxy-2'-fluoroflavone], the “Ambulatory locomotor activity counts vs controls” value with mice [1] (3 mg/kg i.p., 20 min after injection, 5 min session) is reported as “No significant difference”. The IC50 on benzodiazepine receptor (setting [7]) stood at 8000 nM.

As for `COc1cc(O)c2c(=O)cc(-c3ccccc3)oc2c1` [5 hydroxy 7 methoxyflavone, 5-hydroxy-7-methoxyflavone], the IC50 at benzodiazepine receptor (setting [7]) is 46000 nM.

As to `O=c1cc(-c2ccccc2)oc2c(Br)c(O)c(Br)c(O)c12` [6,8 dibromochrysin, 6,8-Dibromo-5,7-dihydroxyflavone], the “Benzodiazepine ligand behaviour / affinity relative to 3H-flunitrazepam” value in the data set on benzodiazepine receptor is recorded as “benzodiazepine ligand behaviour similar to that of ^3 H-flunitrazepam”. In addition, the figures for the IC50 at benzodiazepine receptor (setting [8]) and on benzodiazepine receptor (setting [7]) were 700 to 3000 nM and 700 nM, respectively.

`O=c1cc(-c2ccccc2)oc2cc(Br)ccc12` [7-bromoflavone]: in the data set on mice [1] (i.p., dose not stated), the “Ambulatory locomotor activity counts vs controls” value is “No significant change”. Also, the “Benzodiazepine ligand behaviour / affinity relative to 3H-flunitrazepam” value in the data set on benzodiazepine receptor is listed as “far higher affinity for the benzodiazepine receptor”. Further, the IC50 on benzodiazepine receptor (setting [8]) and at benzodiazepine receptor (setting [7]) was 50 nM in each case.

With `O=c1cc(-c2ccc(O)c(-c3c(O)cc(O)c4c(=O)cc(-c5ccc(O)cc5)oc34)c2)oc2cc(O)cc(O)c12` [Amentoflavone], in the data set on benzodiazepine receptor, the “Benzodiazepine ligand behaviour / affinity relative to 3H-flunitrazepam” value is reported as “far higher affinity for the benzodiazepine receptor”. For the same compound, the IC50 at benzodiazepine receptor (setting [8]) and at benzodiazepine receptor (setting [7]) was 10 nM each time.

On to `O=c1cc(-c2ccc(O)cc2)oc2cc(O)cc(O)c12` [Apigenin, 4', 5,7-trihydroxyflavone], for which the “Effect in the horizontal wire test” value in the data set with mice [2] (3 and 10 mg/kg i.p.) is on record as “did not induce any effect”. Moreover, in the data set on mice [3] (i.p.), the “Anxiolytic effect in the elevated plus maze” value is “shows anxiolytic effects”. For the same compound, the “Number of animals with clonic convulsions” value is reported as 8/8 in the data set with mice [4] (3 mg/kg i.p. + PTZ), 3/3 with mice [4] (20 mg/kg i.p. + PTZ), 12/14 with mice [4] (40 mg/kg i.p. + PTZ) and 11/11 with mice [4] (80 mg/kg i.p. + PTZ). For the same compound, in the data set with mice [4] (i.p., PTZ induced seizures), the Anticonvulsant activity result was “no anticonvulsant activity”. For the same compound, in the data set with benzodiazepine receptor, the “Benzodiazepine ligand behaviour / affinity relative to 3H-flunitrazepam” value is recorded as “benzodiazepine ligand behaviour similar to that of ^3 H-flunitrazepam”. Besides, the IC50 at benzodiazepine receptor (setting [8]) was 700 to 3000 nM; on benzodiazepine receptor (setting [7]), 3000 nM. The entries for the “Noradrenaline decrease in locus coeruleus provoked by immobilization stress” value in data set [5] and in data set [5] (listed as apigenin) were “blocked almost completely the noradrenaline decrease” and “dampened the noradrenaline decrease”, respectively. Also, the “Potency vs diazepam on stress-provoked noradrenaline decrease” value in data set [5] is “most potent effect”. Besides, the “Effect in the holeboard test” value in the data set on mice [6] (3 and 10 mg/kg i.p.) is “did not induce any effect”.

On to `CN1C(=O)CN=C(c2ccccc2)c2cc(Cl)ccc21` [Diazepam, reference compound], for which, in the data set on mice [2] (6 mg/kg i.p.), the “Percentage of animals grasping the horizontal wire” value is “significantly decreased”. In the data set on mice [3] (0.3 mg/kg i.p.), the Total arm entries amounted to 10.5 ± 0.8. Moreover, the Total arm entries with mice [3] (0.6 mg/kg i.p.) is reported as 12.4 ± 1.9. Further, in the data set with mice [3] (0.3 and 0.6 mg/kg i.p.), the “Percentage of entries in the open arms” value is “increased the percentage of entries in the open arms (p<0.01)” and the “Percentage of the time spent on the open arms” value was “the percentage of the time spent on the open arms (p<0.01)”. Besides, the “Anxiolytic effect in the elevated plus maze” value in the data set on mice [3] (i.p.) is on record as “displayed an anxiolytic effect”. Moreover, in the data set on mice [3] (i.p., doses of Table I), the “Total arm entries, difference from controls” value was “No differences were observed”. Also, the Locomotor activity entry in the data set with mice [1] (0.3-3 mg/kg i.p., 20 min after injection) is recorded as “increasing locomotor activity”. In addition, the “Number of animals with clonic convulsions” value in the data set with mice [4] (3 mg/kg i.p. + PTZ) is listed as 0/6. Besides, the Number of head-dips result in the data set with mice [6] (0.3 mg/kg i.p.) is listed as “increased the number of head-dips (p<0.05)”. In addition, the Time spent head-dipping result in the data set on mice [6] (1 mg/kg i.p.) is on record as “increased the time spent head-dipping(p<0.01)”. In addition, in the data set on mice [6] (6 mg/kg i.p.), the Number of head-dips entry is “decrease in both the number of head-dips and in the time spent head-dipping (p<0.01)”; the Sedation entry is reported as “indicates sedation”; the Time spent head-dipping result is “decrease in both the number of head-dips and in the time spent head-dipping (p<0.01)”.

With `O=c1cc(-c2ccccc2)oc2ccccc12` [Flavone, 2-phenyl-4H-1-benzopyran-4-one], in the data set with mice [3] (1 mg/kg i.p.), the “Percentage of entries in the open arms” value was “increased the percentage of entries and time spent in the open arms (p<0.002)”; the “Percentage of the time spent on the open arms” value is “increased the percentage of entries and time spent in the open arms (p<0.002)”. The “Benzodiazepine ligand behaviour / affinity relative to 3H-flunitrazepam” value in the data set on benzodiazepine receptor is on record as “benzodiazepine ligand behaviour similar to that of ^3 H-flunitrazepam”. The IC50 at benzodiazepine receptor (setting [8]) lay within 700 to 3000 nM. Moreover, on benzodiazepine receptor (setting [7]), the IC50 worked out at 1000 nM.

Turning to `COc1cc(O)c2c(=O)cc(-c3ccc(OC)c(-c4c(O)cc(O)c5c(=O)cc(-c6ccc(O)cc6)oc45)c3)oc2c1` [Ginkgetin], on benzodiazepine receptor (setting [7]), the IC50 was determined as 5000 nM.

Turning to `CN1C(=O)CN=C(c2ccccc2F)c2cc([N+](=O)[O-])ccc21` [H^3 -flunitrazepam, reference compound], the affinity at benzodiazepine receptor, expressed as Ki, was 3 nM.

For the compound `COc1ccc(-c2cc(=O)c3c(O)cc(O)c(-c4cc(-c5cc(=O)c6c(O)cc(O)cc6o5)ccc4OC)c3o2)cc1` [Isoginkgetin], on benzodiazepine receptor (setting [7]), the 50% inhibitory concentration (IC50) lay in the range of 4000 to 5000 nM.

In the case of `O=c1c(O[C@@H]2O[C@H](CO)[C@@H](O)[C@H](O)[C@H]2O)c(-c2ccc(O)c(O)c2)oc2cc(O)cc(O)c12` [Isoquercetin, reference compound], the IC50 on benzodiazepine receptor (setting [7]) came to 10000 nM.

Consider `O=c1c(O[C@@H]2O[C@H](CO)[C@@H](O)[C@H](O)[C@H]2O)c(-c2ccc(O)c(O)c2)oc2cc(O)cc(O)c12` [Isoquercitrin, reference compound], for which the IC50 at benzodiazepine receptor (setting [7]) is 80000 nM.

As for `C[C@@H]1O[C@@H](OC[C@H]2O[C@@H](Oc3c(-c4ccc(O)c(O)c4)oc4cc(O)cc(O)c4c3=O)[C@H](O)[C@@H](O)[C@@H]2O)[C@H](O)[C@H](O)[C@H]1O` [Rutin, reference compound], the IC50 on benzodiazepine receptor (setting [7]) came to 60000 nM.

As to `O=C1CC(c2ccccc2)Oc2ccccc21` (centres unmarked) [flavanone, reference compound], at benzodiazepine receptor (setting [7]), the IC50 was 40000 nM.

One may read the IC50 as the point on the concentration scale where inhibition reaches its midpoint. By Ki is commonly meant a measure of affinity in units of concentration, obtained from inhibition or displacement.
